Results reported in US8013187B2, “2-cyclopenten-1-one oxime derivatives inhibiting production of TNF-α” (Amorepacific Corporation, priority 2004, dated 2011).
Converted amounts (≈) assume the structure as drawn.

How the values were obtained:
[1] = tested on: production of TNF-α in rat PBMCs; experiment: Inhibition of TNF-α production in rat PBMCs (LPS/IFN-γ stimulated, ELISA); assay type: cell-based; conditions: PBMC; for IC50: rat PBMCs, LPS + IFN-γ, 18 hours; for inhibition at 3 µg/mL: @ 3 μg/ml
Protocol: (§1) Compounds of this invention were evaluated for their ability to inhibit the production of TNF-α in stimulated immune cells. […] Compounds of the present invention were evaluated for their therapeutic activity in animal models for inflammatory or immunological disorders. Also compounds of this invention were assayed for their ability to inhibit PDE4 isozymes.
Inhibition of TNF-α Production in Rat PBMCs: Compounds of the present invention were evaluated for their ability to inhibit the production of TNF-α in rat peripheral blood mononuclear cells (PBMCs) as described in the literature. [Exp. Geront. vol 37, 235-247 (2002)] In brief, 6 ml rat blood drawn from the abdominal vein as treated with ACD (acid/citrate/dextrose) was carefully added in a tube containing 6 ml Ficoll 1077, and the tube was centrifuged for 30 min at 1500 rpm (415 G) at room temperature. The cell fraction (middle fraction) was suspended in a 50 ml tube containing phosphate buffered saline (PBS). The tube was centrifuged for 5 min at 2000 rpm (737 G). The resulting pellet was suspended in 6 ml PBS and 6 ml Ficoll 1077, and centrifuged for 30 min at 1500 rpm (415 G) at room temperature to remove remaining plasma. The cell fraction was suspended in PBS and centrifuged for 5 min at 2000 rpm. Such a washing was repeated twice. Then the collected cells were suspended in 10 ml RPMI-1640 containing 10% FBS and further diluted to contain 4×10^6 cells per ml. The cell suspension was dispensed into a 96-well plate at 100 μl per well, which was pre-supplemented with 1 μl of either DMSO (placebo) or a DMSO stock solution containing a designated concentration of a compound of this invention. The plate was cultured for an hour at 37° C. under 5% CO2 and 95% O2. To each well, was added 100 μl RPMI-1640 containing 0.1 μg/ml LPS, 5 U/ml IFN-γ, and 10% FBS. Then the plate was subjected to a culture for 18 hours at 37° C. under 5% CO2 and 95% O2. An aliquot of the supernatant from each well was subjected to an ELISA assay to determine the TNF-α level in the well.

[2] = tested on: production of TNF-α in mice stimulated with LPS; experiment: In vivo inhibition of TNF-α production in mice stimulated with LPS; conditions: Mus musculus, 2 h, LPS i.p., plasma at hour 2, read-out: % Inhibition of in vivo TNF-α production @ dose; for inhibition in vivo at 3 mg/kg: 3 mg/kg oral gavage
Protocol: [J. Pharmacol. Exp. Therapeut. vol 279, 1453-1461 (1996)] In brief, either a compound of the instant invention with vehicle or vehicle only (5% Tween 80) was administered by oral gavage (10 ml/kg body weight) at hour 0 to mice (Balb/C or ICR, 25˜30 g) fasted overnight. The mice were subjected to a peritoneal injection with […] LPS per mouse at hour 0.5, and blood was drawn from the abdominal vein at hour 2 following euthanasia with CO2. Then plasma separated from the drawn blood by centrifugation was subjected to an ELISA assay to measure the level of TNF-α.

[3] = tested on: production of TNF-α in human PBMCs; experiment: Inhibition of TNF-α production in human PBMCs (ELISA); assay type: cell-based; conditions: PBMC
Protocol: as §1
Inhibition of TNF-α Production in Human PBMCs: Compounds of the present invention were evaluated for their ability to inhibit the production of TNF-α in human PBMCs as described in the literature. [J. Med. Chem. vol 39, 3238-3240 (1996)] Blood was freshly drawn from healthy human subjects as treated with ACD to isolate human PBMCs according to the procedure employed for rat PBMCs. The employed assay method for the ELISA against human TNF-α was essentially identical to that for the rat TNF-α ELISA assay.

Row | Structure (SMILES) | melting point [°C] | IC50 [1] [µg/mL] | also measured
1 | N#Cc1cc(C2=C(C3CCCC3)CCC2=NO)ccc1F [Example 13, 2-(3-cyano-4-fluorophenyl)-3-cyclopentyl-2-cyclopenten-1-one oxime] | 167 to 168 | 0.4 | inhibition in vivo at 0.3 mg/kg ([2]; 0.3 mg/kg oral gavage): 70%
2 | ON=C1CCC(C2CCCCC2)=C1c1ccc(F)c(F)c1 [Example 30, 3-cyclohexyl-2-(3,4-difluorophenyl)-2-cyclopenten-1-one oxime] | – | < 0.1 | –
3 | CS(=O)(=O)c1cccc(C2=C(C3CCCC3)CCC2=NO)c1 [Example 23, 3-cyclopentyl-2-(3-methylsulfonylphenyl)-2-cyclopenten-1-one oxime] | 164 to 165 | 1.2 | –
4 | C=Cc1ccc(C2=C(C3CCCC3)CCC2=NO)cc1 [Example 18, 3-cyclopentyl-2-(4-vinylphenyl)-2-cyclopenten-1-one oxime] | 177 to 179 | – | inhibition at 3 µg/mL ([1]; Rattus norvegicus): 78%
5 | Cc1ccc(C2=C(C3CCCC3)CCC2=NO)cc1[N+](=O)[O-] [Example 5, 3-cyclopentyl-2-(4-methyl-3-nitrophenyl)-2-cyclopenten-1-one oxime] | 178 to 180 | – | inhibition at 0.3 µg/mL ([1]; Rattus norvegicus, @ 0.3 μg/ml): 66%
6 | COc1cccc(C2=C(C3CCCCC3)CCC2=NO)c1 [Example 32, 3-cyclohexyl-2-(3-methoxyphenyl)-2-cyclopenten-1-one oxime] | 149 to 150 | 0.49 | inhibition in vivo at 3 mg/kg [2]: 92%
7 | ON=C1CCC(C2CCCC2)=C1c1cccc2c1oc1ccccc12 [Example 19, 3-cyclopentyl-2-(4-dibenzofuranyl)-2-cyclopenten-1-one oxime] | 195 to 200 | 1 | –
8 | OCc1ccc(C2=C(C3CCCC3)CCC2=NO)cc1 [Example 26, 3-cyclopentyl-2-(4-hydroxymethylphenyl)-2-cyclopenten-1-one oxime] | 187 to 190 | – | –
9 | CCCCC1=C(c2ccc(F)cc2)C(=NO)CC1 [Example 33, 3-butyl-2-(4-fluorophenyl)-2-cyclopenten-1-one oxime] | 115 to 116 | 2 | –
10 | O=[N+]([O-])c1cccc(C2=C(C3CCCCC3)CCC2=NO)c1 [Example 31, 3-cyclohexyl-2-(3-nitrophenyl)-2-cyclopenten-1-one oxime] | 201 to 202 | – | –
11 | O=[N+]([O-])c1cccc(C2=C(C3CCCC3)CCC2=NO)c1 [Example 4, 3-cyclopentyl-2-(3-nitrophenyl)-2-cyclopenten-1-one oxime] | 162 to 163 | – | –
12 | CCCCC1=C(c2ccc(O)c(F)c2)C(=NO)CC1 [Example 41, 3-butyl-2-(3-fluoro-4-hydroxyphenyl)-2-cyclopenten-1-one oxime] | 141 to 147 | – | –
13 | ON=C1CCC(C2CCCCC2)=C1c1ccc(F)cc1 [Example 27, 3-cyclohexyl-2-(4-fluorophenyl)-2-cyclopenten-1-one oxime] | 173 to 176 | 0.34 | inhibition in vivo at 3 mg/kg [2]: 87%
14 | CCCCC1=C(c2cccc(C(F)(F)F)c2)C(=NO)CC1 [Example 58, 3-butyl-2-{3-(trifluoromethyl)phenyl}-2-cyclopenten-1-one oxime] | 65 to 67 | – | inhibition at 3 µg/mL ([1]; Rattus norvegicus): 59%
15 | OCc1cccc(C2=C(C3CCCC3)CCC2=NO)c1 [Example 25, 3-cyclopentyl-2-(3-hydroxymethylphenyl)-2-cyclopenten-1-one oxime] | – | 1.5 | –
16 | CCCCCC1=C(c2ccc(F)cc2)C(=NO)CC1 [Example 65, 2-(4-fluorophenyl)-3-pentyl-2-cyclopenten-1-one oxime] | 101 to 102 | ~1 | IC50 [3]: 1.2 µg/mL (≈ 4.59 µM)
17 | CCCCC1=C(c2ccc(F)c(F)c2)C(=NO)CC1 [Example 34, 3-butyl-2-(3,4-difluorophenyl)-2-cyclopenten-1-one oxime] | – | 0.3 | –
18 | CC(C)CC1=C(c2cccc(C#N)c2)C(=NO)CC1 [Example 89, 2-(3-cyanophenyl)-3-isobutyl-2-cyclopenten-1-one oxime] | 138 to 140 | 0.09 | –
19 | ON=C1CCC(C2CCCC2)=C1c1cccc(O)c1 [Example 24, 3-cyclopentyl-2-(3-hydroxyphenyl)-2-cyclopenten-1-one oxime] | 207 to 209 | – | –
20 | N#Cc1cccc(C2=C(C3CCCC3)CCC2=NO)c1 [Example 12, 2-(3-cyanophenyl)-3-cyclopentyl-2-cyclopenten-1-one oxime] | 180 to 182 | 0.1 | IC50 [3]: 0.16 µg/mL (≈ 0.601 µM)
21 | CCCC1=C(c2cccc([N+](=O)[O-])c2)C(=NO)CC1 [Example 80, 2-(3-nitrophenyl)-3-propyl-2-cyclopenten-1-one oxime] | – | 0.2 | inhibition in vivo at 3 mg/kg [2]: 95%

Now from value to compound, other results behind:

Row | melting point [°C] | Structure (SMILES) | IC50 [1] [µg/mL] | also measured
22 | 79 to 80 | CCCCCC1=C(c2cccc([N+](=O)[O-])c2)C(=NO)CC1 [Example 71, 2-(3-nitrophenyl)-3-pentyl-2-cyclopenten-1-one oxime] | – | –
23 | 105 to 106 | CCCCCC1=C(c2ccsc2)C(=NO)CC1 [Example 77, 3-pentyl-2-(3-thienyl)-2-cyclopenten-1-one oxime] | 2.8 | –
24 | 165 to 166 | CCCC1=C(c2ccc(F)cc2)C(=NO)CC1 [Example 78, 2-(4-fluorophenyl)-3-propyl-2-cyclopenten-1-one oxime] | 0.62 | –
25 | 168 to 169 | CCC1=C(c2ccc(F)cc2)C(=NO)CC1 [Example 81, 3-ethyl-2-(4-fluorophenyl)-2-cyclopenten-1-one oxime] | ~3 | –
26 | 136 to 139 | CC(C)CC1=C(c2ccc(F)c(F)c2)C(=NO)CC1 [Example 86, 2-(3,4-difluorophenyl)-3-isobutyl-2-cyclopenten-1-one oxime] | 0.27 | –
27 | 110 to 111 | CCCCCC1=C(c2ccccc2)C(=NO)CC1 [Example 66, 3-pentyl-2-phenyl-2-cyclopenten-1-one oxime] | 1 to 3 | inhibition in vivo at 3 mg/kg [2]: 45%
28 | 170 to 171 | CC1=C(c2ccc(F)cc2)C(=NO)CC1 [Example 83, 2-(4-fluorophenyl)-3-methyl-2-cyclopenten-1-one oxime] | ~10 | –
29 | 154 to 157 | CC(C)CC1=C(c2ccc(F)cc2)C(=NO)CC1 [Example 85, 2-(4-fluorophenyl)-3-isobutyl-2-cyclopenten-1-one oxime] | 0.77 | –
30 | 85 to 86 | CCCCCCCCCc1ccc(C2=C(CC(C)C)CCC2=NO)cc1F [Example 90, 2-(3-fluoro-4-n-nonylphenyl)-3-isobutyl-2-cyclopenten-1-one oxime] | – | –
